Measurements: patent publication US20250208149A1, “WEE1 COMPOUND FOR TREATING UTERINE SEROUS CARCINOMA” (Recurium IP Holdings, LLC, priority 2022, published 2025)

How the values were obtained:
Assay type in all cases: cell-based
A427 cells = assay: ZN-c3 dose response, percent cell density (cell titer glow), PPP2R1A siRNA vs scrambled control; conditions: Homo sapiens, A-427, 72 h
Procedure: FIG. 1 depicts the percent cell density of A427 (a first non-small cell lung cancer cell line) cells after treatment with a 10-point dose response of ZN-c3 for 72 hours, comparing cells transfected with siRNA to PPP2R1A against those transfected with a scrambled control siRNA. Percent cell density is calculated using cell titer glow analysis. PPP2R1A siRNA transfected cells have approximately 3.5-fold increase in sensitivity to ZN-c3 (TABLE 1).
The effect of PPP2R1A knockdown on influencing cancer cell susceptibility to ZN-c3 was evaluated. Various cancer cell lines were transfected with PPP2R1A siRNA or control scrambled siRNA and the cells were treated with a 10 point dose response of ZN-c3 for 72 hours. Percent cell density was calculated using cell titer glow analysis. The PPP2R1A siRNA targeted the following bases Chr.19: 52189802-52226425. SiRNA transfection was started 48 hours prior to treatment with ZN-c3. […]
A first non-small cell lung cancer cell line A427 was treated with PPP2R1A siRNA or control siRNA and transfected cells were assessed for sensitivity to ZN-c3 by measurement of reduction in percent cell density (FIG. 1). PPP2R1A siRNA mediated knockdown of PPP2R1A was evaluated by comparison of PPP2R1A expression in conditions treated with siCTRL and siPPPR12A (FIG. 2).

H1975 lung cancer cells = assay: ZN-c3 dose response, percent cell density (cell titer glow), CRISPR knockout of PPP2R1A vs non-targeting guide RNA; conditions: Homo sapiens, NCI-H1975, 72 h
Procedure: FIG. 15 depicts the percent cell density of H1975 lung cancer cells after treatment with a 10-point dose response of ZN-c3 for 72 hours, comparing cells transduced with a non-targeting guide RNA to against those with genetic knockout of PPP2R1A after transduction with a CRISPR guide RNA targeting PPP2R1A. Percent cell density is calculated using cell titer glow analysis. PPP2R1A CRISPR knockout cells have approximately 1.9 fold increase in sensitivity to ZN-c3 (TABLE 8).
Having observed that siRNA mediated knockdown of PPP2R1A sensitized cancer cell lines to treatment with ZN-c3, it was also of interest to evaluate if CRISPR mediated PPP2R1A knockout produced a similar effect. Various cancer cell lines were transfected with a CRISPR guide RNA targeting PPP2R1A or nontargeting guide RNA and the cells were treated with a 10-point dose response of ZN-c3 for 72 hours. […] Percent cell density was calculated using cell titer glow analysis.
The lung cancer cell line H1975 was treated with a CRISPR guide RNA targeting PPP2R1A or nontargeting guide RNA and transfected cells were assessed for sensitivity to ZN-c3 by measurement of reduction in percent cell density (FIG. 15). CRISPR mediated knockout of PPP2R1A was evaluated by comparison of PPP2R1A expression in conditions treated with nontargeting guide RNA and PPPR12A targeting CRISPR guide RNA (FIG. 16).

[1] = system: OV17R ovarian cancer cells; assay: Percent inhibition of cell growth, ZN-c3, LB-100 or ZN-c3+LB-100 (cell titer glow); conditions: OV17R (PPP2R1A S256F), 72 hours; ZN-c3 75 nM, LB-100 1 μM
Procedure: FIG. 19 depicts the percent inhibition of cell growth in OV17R ovarian cancer cells after treatment with ZN-c3 alone, the PP2A catalytic inhibitor LB-100 alone, or the combination of ZN-c3+LB-100. OV17R has the PPP2R1A missense mutation S256F. Percent inhibition is calculated using cell titer glow analysis.
(§1) Following observations that both knockdown and knockout of PPP2R1A could sensitize cancer cells to Zn-C3, the effects of pharmacological inhibition of PPP2R1A with the catalytic inhibitor LB-100 were evaluated. Various cancer cell lines were treated with ZN-c3 alone, the PP2A catalytic inhibitor LB-100 alone, or the combination of ZN-c3+LB-100. As in Example 1 and Example 2, the treatment period was 72 hours and percent inhibition was calculated using cell titer glow analysis.
The ovarian cancer cell line OV17R was assessed for sensitivity to ZN-c3 alone, LB-100 alone, or the combination of ZN-c3+LB-100 (FIG. 19).

[2] = system: HEC-59 endometrial cancer cells; assay: Percent inhibition of cell growth, ZN-c3, LB-100 or ZN-c3+LB-100 after siCTRL or siPPP2R1A (cell titer glow); conditions: 72 hours, ZN-c3 300 nM, LB-100 1 μM
Procedure: (§2) FIG. 20 depicts the percent inhibition of cell growth in HEC-59 endometrial cancer cells after treatment with ZN-c3 alone, the PP2A catalytic inhibitor LB-100 alone, or the combination of ZN-c3+LB-100 after siRNA mediated knockdown of PPP2R1A. […] Percent inhibition is calculated using cell titer glow analysis.
Various cancer cell lines were treated with ZN-c3 alone, the PP2A catalytic inhibitor LB-100 alone, or the combination of ZN-c3+LB-100. As in Example 1 and Example 2, the treatment period was 72 hours and percent inhibition was calculated using cell titer glow analysis.
The endometrial cancer cell line HEC-59 was assessed for sensitivity to ZN-c3 alone, LB-100 alone, or the combination of ZN-c3+LB-100 following treatment with siCTRL or siPPP2R1A (FIG. 20).

[3] = system: HEC1B endometrial cancer cells; assay: as above; conditions: HEC1B, 72 hours, ZN-c3 200 nM, LB-100 1 μM
Procedure: as §2, with “21” for “20”, “HEC1B” for “HEC-59”
as §1
The endometrial cancer cell line HEC1B was also assessed for sensitivity to ZN-c3 alone, LB-100 alone, or the combination of ZN-c3+LB-100 following treatment with siCTRL or siPPP2R1A (FIG. 21).

## C=CCn1c(=O)c2cnc(Nc3ccc(N4CCN(C)CC4)cc3)nc2n1-c1ccc2c(n1)[C@@](O)(CC)CC2 [ZN-c3, (R)-2-allyl-1-(7-ethyl-7-hydroxy-6,7-dihydro-5H-cyclopenta[b]pyridin-2-yl)-6-((4-(4-methylpiperazin-1-yl)phenyl)amino)-1,2-dihydro-3H-pyrazolo[3,4-d]pyrimidin-3-one]
A427 cells; siCTRL
  EC50: 196 nM
A427 cells; siPPP2R1A
  EC50: 55.4 nM
H1975 lung cancer cells; sgNT (non-targeting guide RNA)
  EC50: 516 nM
H1975 lung cancer cells; sgPPP2R1A (CRISPR knockout)
  EC50: 275 nM
[1]
  percent inhibition of cell growth: approximately 30%
[2]; HEC-59, siCTRL
  percent inhibition of cell growth: approximately 12%
[2]; HEC-59, siPPP2R1A
  percent inhibition in siPPP2R1A treated cells compared to siCTRL treated cells: approximately doubled
[3]; siCTRL
  percent inhibition of cell growth: approximately 30%
[3]; siPPP2R1A
  percent inhibition in siPPP2R1A treated cells compared to siCTRL treated cells: approximately the same
